{"source": "patent US11833204B2", "about": "“Visible light-activatable nanoparticles for cancer immunotherapy and use thereof” (KOREA INSTITUTE OF SCIENCE AND TECHNOLOGY, priority 2021, dated 2023)", "key": {"[1]": {"assay": "Morphological analysis by transmission electron microscopy in saline", "type": "physicochemical", "conditions": "1 mg in 1 mL physiological saline", "method": "The self-assembled nanoparticles (LT-NPs) prepared in Example 1, doxorubicin (DOX), and verteporfin (VPF) were used as samples. 1 mg of each sample was mixed with physiological saline (1 mL). […] The self-assembled nanoparticles (LT-NPs) were mixed with cathepsin B (Cat-B) protease (50 μg/mL). The mixture was allowed to react for 24 h."}, "CT26 cells [2]": {"system": "CT26 cells", "assay": "Apoptosis and necrosis of CT26 cells (Annexin V/PI flow cytometry)", "type": "cell-based", "conditions": "CT26, visible light", "method": "The degrees of apoptosis and necrosis of cancer cells were quantitatively analyzed to accurately evaluate the anticancer effect of the self-assembled nanoparticles (LT-NPs). First, CT26 cells treated with doxorubicin (DOX), verteporfin (VPF), a mixture of doxorubicin and verteporfin (VPF+DOX) or the self-assembled nanoparticles (LT-NPs) and a laser were prepared as above and treated with 5 μg of Annexin V-FITC and 10 μg of PI solution for 10 min. Then, cells were cultured with a cell fixative for 10 min and further cultured with DAPI for 20 min. The degrees of apoptosis and necrosis were quantitatively analyzed using a flow cytometer (BD FACSVerse, BD bioscience, USA)."}, "CT26 cells [3]": {"system": "CT26 cells", "assay": "Immunogenic cell death: extracellular HSP70 and HMGB1 (Western blotting)", "type": "cell-based", "conditions": "CT26, 5 μM, 24 h, +L/−L", "method": "(§1) First, CT26 cells were plated in 35 mm cell culture dishes at a density of 1×10^5 cells/dish and doxorubicin (DOX) (5 μM), verteporfin (VPF) (5 μM) or the self-assembled nanoparticles (LT-NPs) (5 μM) were added to each dish. After 24-h culture, one half was exposed by irradiation with visible light using a 671 nm laser at 40 mW for 250 sec (+L) and the other half was not irradiated with visible light for comparison (−L). The immunogenic cell death of the self-assembled nanoparticles (LT-NPs) was evaluated using the cells and the cell culture media.\nBefore staining the cells with APC-conjugated CRT antibody, culture media were separated from the cells and the extracellular expression levels of HMGB1 and HSP70 were analyzed by Western blotting.\nEach cell culture medium was treated with RIPA buffer (Cell Signaling Technology) at 4° C. for 30 min and the protein amount of the lysate was analyzed using a Pierce BCA protein assay kit (Thermo Fisher Scientific) according to the manufacturer's protocol. After SDS-PAGE, proteins were transferred to a PVDF membrane (Bio-Rad), which was then treated with Tris-buffered saline (TBS-T) containing 5% skim milk and 0.1% Tween-20. The membrane was incubated with primary antibodies at 4° C. overnight. HSP70 and HMGB1 antibodies were used as the primary antibodies. The membrane was washed with TBS-T and incubated with a secondary antibody at room temperature for 1 h. The membrane was washed with TBS-T, treated with EZ-Western Lumi Pico or Femto reagent (DoGen), and analyzed using Fusion-Solo software (Vilber) according to the manufacturer's protocol to determine band intensities."}, "CT26 cells [4]": {"system": "CT26 cells", "assay": "Immunogenic cell death: calreticulin expression", "type": "cell-based", "conditions": "CT26, 5 μM, 24 h, +L/−L", "method": "as §1\nCells were stained with APC-conjugated CRT antibody for 12 h and observed with a confocal fluorescence microscope."}, "[5]": {"assay": "Size analysis of LT-NPs by dynamic light scattering", "type": "physicochemical", "conditions": "1 mg/mL in saline, DLS", "method": "The self-assembled nanoparticles (LT-NPs) prepared in Example 1 were diluted with saline to a concentration of 1 mg/mL and their particle size was analyzed by dynamic light scattering (DLS; Zetasizer Nano ZS, Malvern Instruments)."}, "CT26 cells [6]": {"system": "CT26 cells", "assay": "CT26 cell viability (CCK) after visible light irradiation", "type": "cell-based", "conditions": "CT26, 0-10 μM, 24 h, 671 nm laser 40 mW 250 sec", "method": "After CT26 cells were plated in a 96-well plate at a density of 5×10^3 cells/well, the wells were treated with doxorubicin (DOX) (0, 0.01, 0.1, 1, and or 10 μM), verteporfin (VPF) (0, 0.01, 0.1, 1, and 10 μM), mixtures thereof (DOX+VPF), and the self-assembled nanoparticles (LT-NPs) (0, 0.01, 0.1, 1, and 10 μM). After culture for 24 h, cells were exposed by irradiation with visible light using a 671 nm laser at 40 mW for 250 sec. Then, a cell culture medium containing […] of CCK solution was added to each well. Cells were further cultured for 20 min and the absorbance of the 96-well plate was measured at 450 nm on a VERSAmax™ microplate reader (Molecular Devices Corp., Sunnyvale, Calif.)."}, "[7]": {"assay": "ROS generation under 671 nm laser (RNO test)", "conditions": "10 μM, 671 nm laser 40 mW 250 sec", "method": "ROS generation was analyzed by RNO test, where bleaching of N-nitrosodimethylaniline (RNO) by ROS was observed as a decrease in absorbance at 440 nm.\nTo determine the reactivity of the self-assembled nanoparticles (LT-NPs) to visible light, experimental samples and a comparative sample were prepared as follows. Each sample was mixed with a 10 μM RNO standard solution and irradiated with visible light using a 671 nm laser (SDL-671 series, Shanghai Dream Laser Technology Co., Ltd.) at a power of 40 mW for 250 sec. Absorbances were measured at 440 nm over time while being irradiated with visible light.\nControl sample (VPF, control): Verteporfin (VPF) (10 μM) was mixed with physiological saline (1 mL).\nExperimental sample 1 (LT-NPs(-Cat-B)): The self-assembled nanoparticles (LT-NPs) (10 μM) prepared in Example 1 were mixed with physiological saline (1 mL).\nExperimental sample 2 (LT-NPs(+Cat-B)): The self-assembled nanoparticles (LT-NPs) (10 μM) prepared in Example 1 were mixed with distilled water (200 μL) containing cathepsin B (10 μg) and 1.2 mM histidine. […]\nFirst, the absorbance before laser irradiation was defined as 1 and reduction rates of the absorbance values measured at 440 nm with respect to the absorbance before laser irradiation were calculated. The calculated values were transformed into negative natural logs (−In(y)), which were then multiplied by 100. […]"}, "CT26 cells [8]": {"system": "CT26 cells", "assay": "Immunogenic cell death: extracellular ATP release", "type": "cell-based", "conditions": "CT26, 5 μM, 24 h, +L/−L", "method": "as §1\nATP was analyzed using a commercially available ATP assay kit (Beyotime Biotechnology) according to the manufacturer's protocol."}}}
{"smiles": "C=CC1=C(C)/C2=C/C3=NC(Cc4[nH]c(c(CCCCC(=O)OC)c4C)CC4N=C(CC1N2)C(C)=C4CCC(=O)N[C@H](Cc1ccccc1)C(=O)N[C@@H](CCCNC(=N)N)C(=O)N[C@H](CCCNC(=N)N)C(=O)NCC(=O)NC1C[C@@H](OC2C[C@](O)(C(=O)CO)Cc4c(O)c5c(c(O)c42)C(=O)c2c(OC)cccc2C5=O)O[C@@H](C)[C@H]1O)[C@@]1(C)C3=CC=C(C(=O)OC)[C@@H]1C(=O)OC", "note": "(stereo partly drawn) [LT-NPs, VPF-FRRG(SEQ ID NO: 1)-DOX]", "values": [{"measurement": "morphology in physiological saline (TEM)", "setting": "[1]", "value": "dispersed without aggregation in saline"}, {"measurement": "degree of apoptosis (and necrosis)", "setting": "CT26 cells [2]", "value": "significantly higher than that caused by the conventional drugs"}, {"measurement": "proportions of early apoptosis, late apoptosis and necrosis", "setting": "CT26 cells [2]", "value": "lower proportions of late apoptosis and necrosis and a higher proportion of early apoptosis"}, {"measurement": "degree of apoptosis (and necrosis)", "setting": "CT26 cells [2]; listed as self-assembled nanoparticles", "value": "significantly higher apoptosis and necrosis"}, {"measurement": "HMGB-1 release", "setting": "CT26 cells [3]", "value": "significantly higher"}, {"measurement": "HSP70 release", "setting": "CT26 cells [3]", "value": "significantly higher"}, {"measurement": "calreticulin expression", "setting": "CT26 cells [4]", "value": "Significantly higher"}, {"measurement": "average particle diameter", "setting": "[5]", "value": 87, "unit": "nm"}, {"measurement": "cell viability versus doxorubicin and verteporfin", "setting": "CT26 cells [6]", "value": "no significant differences"}, {"measurement": "amount of ROS generated, relative to verteporfin (VPF)", "setting": "[7]; cleaved with cathepsin B", "value": 80, "unit": "%"}, {"measurement": "reactivity with visible light (ROS generation), stable state", "setting": "[7]; without Cat-B", "value": "hardly reactive with visible light"}, {"measurement": "ATP release", "setting": "CT26 cells [8]", "value": "significantly higher"}]}
